Data from patent publication US8012967B2, “Minor groove binders” (University of Strathclyde, priority 2006, dated 2011).
In brackets after ≈: the same amount, converted by molar mass. Like-named read-outs stand apart in the source and are kept apart here.

Columns and labels:
[1] = system: Staphylococcus aureus Strain 1 (BSAC04(1)) (Clinical isolate from Glasgow Royal Infirmary); assay: MIC, Staphylococcus aureus Strain 1; format: cell-based; settings: Staphylococcus aureus, read-out: Minimum inhibitory concentrations (MICs), S aureus 1
Method in brief: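 Broth microdilution in Mueller-Hinton Broth: test sample at 200 μg/ml working concentration, serially doubled across rows, incubated at 37° C. MIC taken from the colour pattern, with sterility and growth controls included.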

[2] = system: Staphylococcus aureus Strain 2 (NCTC 6571); assay: MIC, Staphylococcus aureus Strain 2; format: cell-based; settings: Staphylococcus aureus, NCTC6571, read-out: Minimum inhibitory concentrations (MICs), S. aureus 2
Method in brief: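 Broth microdilution with doubling dilutions of compound in Mueller-Hinton Broth, incubated at 37° C. MIC read from the colour pattern in the wells. Sterility and growth controls included.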

[3] = system: Mycobacter fortuitum (NCTC 10394); assay: MIC, Mycobacter fortuitum; format: cell-based; settings: Mycolicibacterium fortuitum, NCTC10394, read-out: Minimum inhibitory concentrations (MICs), M. fortuitum
Experimental: The effects of compounds of the invention in relation to inhibiting the growth of various microorganisms was determined using methods known to those skilled in the art, for example in vitro methods as described in J. Med. Chem. 47, 2133-2156 (2004) and in vivo methods as described in J. Med. Microbiol. 46, 208-213 (1997), the disclosures of which documents are hereby incorporated by reference. In particular, minimum inhibitory concentrations (MICs) against microorganisms (e.g. S. Aureus, Streptococcus faecalis, Aspergillus niger, Candida albicans or Mycobacterium fortuitum) for compounds of the invention may be measured using procedures such as those described in A. J. Drummond and […] development of microbiological methods for phytochemical screening” Recent Res. Devel. […] The test wells on each 96 well microtitre plate were initially inoculated with culture medium (100 μL) using Mueller-Hinton Broth for antibacterial assays and Sabouraud Broth for antifungal assays. A solution of each test sample (100 μL) was added to one row of each plate and a series of doubling dilutions made for successive rows. Incubation was at 37° C. for antibacterial assay and 25° C. for antifungal assay. […] From the observed pattern of colour, the MIC was determined. All tests included sterility and growth controls.

[4] = system: Candida albicans (NCPF3179); assay: MIC, Candida albicans; format: cell-based; settings: Candida albicans, NCPF3179, read-out: Minimum inhibitory concentrations (MICs), C. albicans
[5] = system: Aspergillus niger (IMI 1745); assay: MIC, Aspergillus niger; format: cell-based; settings: Aspergillus niger, read-out: Minimum inhibitory concentrations (MICs), A. niger
[6] = system: clinical strains of S. aureus in the Scottish Clinical Isolates Collection; assay: MIC against collected clinical strains of S. aureus (BSAC03/04/05 (1)-(10)); format: cell-based, Staphylococcus aureus; settings: for MIC: Staphylococcus aureus, read-out: Minimum inhibitory concentrations (MICs)
Text: In particular, minimum inhibitory concentrations (MICs) against microorganisms (e.g. S. Aureus, Streptococcus faecalis, Aspergillus niger, Candida albicans or Mycobacterium fortuitum) for compounds of the invention may be measured using procedures such as those described in A. J. Drummond and R. D. Waigh “The development of microbiological methods for phytochemical screening” Recent Res. Devel. Phytochem. 4, 143-152 (2000), the disclosures of which document are hereby incorporated by reference.
Sample dilutions were typically prepared by dissolving the test sample (2 mg) in sterile water (10 mL) to provide a working concentration of 200 μg/ml. The test wells on each 96 well microtitre plate were initially inoculated with culture medium (100 μL) using Mueller-Hinton Broth for antibacterial assays and Sabouraud Broth for antifungal assays. A solution of each test sample (100 μL) was added to one row of each plate and a series of doubling dilutions made for successive rows. Incubation was at 37° C. for antibacterial assay and 25° C. for antifungal assay. […] From the observed pattern of colour, the MIC was determined. All tests included sterility and growth controls.
BSAC03/04/05 (1)-(10) refer to collected clinical strains of S. aureus in the Scottish Clinical Isolates Collection.

[7] = value in parentheses, na = not active

Compound: Cn1cc(NC(=O)c2cc(NC(=O)c3ccc(/C=C/c4cnc5ccccc5c4)cc3)cn2C)cc1C(=O)NCCN1CCOCC1 [Example 2, 1-Methyl-4-({[1-methyl-4-({4-[(E)-2-(3-quinolinyl)ethenyl]benzoyl}amino)-1H-pyrrol-2-yl]carbonyl}amino)-N-[2-(4-morpholinyl)ethyl]-1H-pyrrole-2-carboxamide]
- MIC [1, 7]: 0.12 µg/mL
- MIC ([1]; value outside parentheses): 0.16 µM
- MIC [2, 7]: 0.25 µg/mL
- MIC ([2]; value outside parentheses): 0.32 µM
- MIC [3, 7]: 50 µg/mL
- MIC ([3]; value outside parentheses): 67 µM
- MIC [4, 7]: 25 µg/mL
- MIC ([4]; value outside parentheses): 33.5 µM
- MIC [5, 7]: 50 µg/mL
- MIC ([5]; value outside parentheses): 67 µM
- MIC ([6]; S. aureus BSAC culture year 2003 number 1): 0.25 µg/mL (≈ 0.396 µM)
- MIC ([6]; S. aureus BSAC culture year 2003 number 2): 0.25 µg/mL (≈ 0.396 µM)
- MIC ([6]; S. aureus BSAC culture year 2003 number 3): 0.25 µg/mL (≈ 0.396 µM)
- MIC ([6]; S. aureus BSAC culture year 2003 number 4): 0.12 µg/mL (≈ 0.19 µM)
- MIC ([6]; S. aureus BSAC culture year 2003 number 5): 0.12 µg/mL (≈ 0.19 µM)
- MIC ([6]; S. aureus BSAC culture year 2003 number 6): 0.12 µg/mL (≈ 0.19 µM)
- MIC ([6]; S. aureus BSAC culture year 2003 number 7): 0.12 µg/mL (≈ 0.19 µM)
- MIC ([6]; S. aureus BSAC culture year 2003 number 8): 0.06 µg/mL (≈ 0.095 µM)
- MIC ([6]; S. aureus BSAC culture year 2003 number 9): 0.25 µg/mL (≈ 0.396 µM)
- MIC ([6]; S. aureus BSAC culture year 2003 number 10): 0.25 µg/mL (≈ 0.396 µM)
- MIC ([6]; S. aureus BSAC culture year 2004 number 1): 0.25 µg/mL (≈ 0.396 µM)
- MIC ([6]; S. aureus BSAC culture year 2004 number 2): 0.5 µg/mL (≈ 0.791 µM)
- MIC ([6]; S. aureus BSAC culture year 2004 number 3): 0.5 µg/mL (≈ 0.791 µM)
- MIC ([6]; S. aureus BSAC culture year 2004 number 4): 0.25 µg/mL (≈ 0.396 µM)
- MIC ([6]; S. aureus BSAC culture year 2004 number 5): 0.12 µg/mL (≈ 0.19 µM)
- MIC ([6]; S. aureus BSAC culture year 2004 number 6): 0.25 µg/mL (≈ 0.396 µM)
- MIC ([6]; S. aureus BSAC culture year 2004 number 7): 0.12 µg/mL (≈ 0.19 µM)
- MIC ([6]; S. aureus BSAC culture year 2004 number 8): 0.25 µg/mL (≈ 0.396 µM)
- MIC ([6]; S. aureus BSAC culture year 2004 number 9): 0.12 µg/mL (≈ 0.19 µM)
- MIC ([6]; S. aureus BSAC culture year 2004 number 10): 0.12 µg/mL (≈ 0.19 µM)
- MIC ([6]; S. aureus BSAC culture year 2005 number 1): 0.25 µg/mL (≈ 0.396 µM)
- MIC ([6]; S. aureus BSAC culture year 2005 number 2): 1 µg/mL (≈ 1.58 µM)
- MIC ([6]; S. aureus BSAC culture year 2005 number 3): 0.12 µg/mL (≈ 0.19 µM)
- MIC ([6]; S. aureus BSAC culture year 2005 number 4): 0.25 µg/mL (≈ 0.396 µM)
- MIC ([6]; S. aureus BSAC culture year 2005 number 5): 0.25 µg/mL (≈ 0.396 µM)
- MIC ([6]; S. aureus BSAC culture year 2005 number 6): 0.12 µg/mL (≈ 0.19 µM)
- MIC ([6]; S. aureus BSAC culture year 2005 number 7): 0.25 µg/mL (≈ 0.396 µM)
- MIC ([6]; S. aureus BSAC culture year 2005 number 8): 0.5 µg/mL (≈ 0.791 µM)
- MIC ([6]; S. aureus BSAC culture year 2005 number 9): 0.25 µg/mL (≈ 0.396 µM)
- MIC ([6]; S. aureus BSAC culture year 2005 number 10): 0.12 µg/mL (≈ 0.19 µM)
- microbicidal activity against a number of different strains of Staphylococcus aureus ([6]; result in words): displayed microbicidal activity
